Data: the NIST ThermoML archive (doi:10.1021/je200811n)

Settings: Hot wire method

F/C=C/C(F)(F)F [trans-1,3,3,3-tetrafluoropropene]
Liquid
Settings	thermal conductivity [W/m/K]
203.15 K	0.1101
213.15 K	0.1064
223.15 K	0.1024
233.15 K	0.0984
243.15 K	0.09448
253.15 K	0.09063

Settings	thermal conductivity [W/m/K]
203.18 K, 711 kPa, Liquid	0.1106
203.18 K, 5522 kPa, Liquid	0.1124
203.18 K, 10459 kPa, Liquid	0.114
203.18 K, 15332 kPa, Liquid	0.1155
203.18 K, 20782 kPa, Liquid	0.1173
203.28 K, 739 kPa, Liquid	0.1103
203.28 K, 5531 kPa, Liquid	0.112
203.28 K, 10473 kPa, Liquid	0.1137
203.29 K, 15354 kPa, Liquid	0.1152
203.29 K, 20780 kPa, Liquid	0.1169
203.54 K, 5526 kPa, Liquid	0.1122
203.54 K, 10469 kPa, Liquid	0.1137
203.55 K, 747 kPa, Liquid	0.1104
203.55 K, 15371 kPa, Liquid	0.1153
203.56 K, 20781 kPa, Liquid	0.1169
203.67 K, 5527 kPa, Liquid	0.1118
203.67 K, 10483 kPa, Liquid	0.1135
203.67 K, 15392 kPa, Liquid	0.1149
203.67 K, 20820 kPa, Liquid	0.1167
203.68 K, 729 kPa, Liquid	0.11
203.94 K, 20822 kPa, Liquid	0.1168
203.95 K, 15357 kPa, Liquid	0.1149
203.96 K, 5536 kPa, Liquid	0.1119
203.96 K, 10470 kPa, Liquid	0.1136
203.97 K, 733 kPa, Liquid	0.1102
204.1 K, 15343 kPa, Liquid	0.1146
204.1 K, 20832 kPa, Liquid	0.1164
204.11 K, 5538 kPa, Liquid	0.1115
204.11 K, 10474 kPa, Liquid	0.1133
204.12 K, 727 kPa, Liquid	0.1098
204.38 K, 20839 kPa, Liquid	0.1166
204.39 K, 15379 kPa, Liquid	0.1146
204.4 K, 10465 kPa, Liquid	0.1133
204.41 K, 5532 kPa, Liquid	0.1118
204.42 K, 727 kPa, Liquid	0.11
204.56 K, 15381 kPa, Liquid	0.1145
204.56 K, 20849 kPa, Liquid	0.1163
204.57 K, 10473 kPa, Liquid	0.113
204.59 K, 5544 kPa, Liquid	0.1114
204.62 K, 736 kPa, Liquid	0.1094
204.85 K, 20860 kPa, Liquid	0.1164
204.87 K, 15409 kPa, Liquid	0.1147
204.88 K, 10437 kPa, Liquid	0.1131
204.9 K, 5524 kPa, Liquid	0.1115
204.92 K, 744 kPa, Liquid	0.1095
205.05 K, 20874 kPa, Liquid	0.116
205.06 K, 15407 kPa, Liquid	0.1143
205.09 K, 10456 kPa, Liquid	0.1127
205.1 K, 5515 kPa, Liquid	0.1111
205.13 K, 719 kPa, Liquid	0.1088
221.66 K, 461 kPa, Liquid	0.1031
221.67 K, 5469 kPa, Liquid	0.1047
221.74 K, 21449 kPa, Liquid	0.1111
221.76 K, 463 kPa, Liquid	0.1036
221.76 K, 5431 kPa, Liquid	0.1048
221.76 K, 10410 kPa, Liquid	0.1068
221.76 K, 15721 kPa, Liquid	0.1089
221.84 K, 21448 kPa, Liquid	0.1108
221.86 K, 15726 kPa, Liquid	0.1087
221.88 K, 10573 kPa, Liquid	0.1069
222.06 K, 464 kPa, Liquid	0.1022
222.06 K, 10416 kPa, Liquid	0.1071
222.08 K, 5404 kPa, Liquid	0.1049
222.12 K, 21441 kPa, Liquid	0.1109
222.15 K, 15723 kPa, Liquid	0.1088
222.18 K, 10370 kPa, Liquid	0.1067
222.19 K, 465 kPa, Liquid	0.103
222.19 K, 5436 kPa, Liquid	0.1046
222.24 K, 21442 kPa, Liquid	0.1106
222.27 K, 15726 kPa, Liquid	0.1085
222.3 K, 10660 kPa, Liquid	0.1066
222.49 K, 10407 kPa, Liquid	0.1072
222.5 K, 470 kPa, Liquid	0.1023
222.5 K, 5467 kPa, Liquid	0.105
222.5 K, 10293 kPa, Liquid	0.1066
222.54 K, 21423 kPa, Liquid	0.1106
222.57 K, 15731 kPa, Liquid	0.1085
222.64 K, 10411 kPa, Liquid	0.1065
222.65 K, 468 kPa, Liquid	0.1027
222.65 K, 5467 kPa, Liquid	0.1046
222.68 K, 21432 kPa, Liquid	0.1103
222.72 K, 15730 kPa, Liquid	0.1082
222.97 K, 10413 kPa, Liquid	0.1065
222.99 K, 5478 kPa, Liquid	0.1038
223 K, 470 kPa, Liquid	0.1026
223 K, 21446 kPa, Liquid	0.1104
223.04 K, 15727 kPa, Liquid	0.1083
223.15 K, 10394 kPa, Liquid	0.1061
223.16 K, 5476 kPa, Liquid	0.1042
223.18 K, 469 kPa, Liquid	0.1021
223.18 K, 21443 kPa, Liquid	0.11
223.22 K, 15728 kPa, Liquid	0.108
223.49 K, 10439 kPa, Liquid	0.1055
223.5 K, 21421 kPa, Liquid	0.1101
223.52 K, 5475 kPa, Liquid	0.105
223.55 K, 15715 kPa, Liquid	0.1081
223.7 K, 10408 kPa, Liquid	0.1058
223.71 K, 21432 kPa, Liquid	0.1098
223.73 K, 5485 kPa, Liquid	0.104
223.75 K, 474 kPa, Liquid	0.1022
223.76 K, 15729 kPa, Liquid	0.1077
241.49 K, 10379 kPa, Liquid	0.09991
241.51 K, 15379 kPa, Liquid	0.1018
241.52 K, 20702 kPa, Liquid	0.1042
241.53 K, 5318 kPa, Liquid	0.09771
241.56 K, 614 kPa, Liquid	0.09561
241.59 K, 10369 kPa, Liquid	0.0996
241.6 K, 15368 kPa, Liquid	0.1014
241.61 K, 20709 kPa, Liquid	0.1038
241.62 K, 5325 kPa, Liquid	0.09743
241.66 K, 603 kPa, Liquid	0.09528
241.9 K, 10355 kPa, Liquid	0.09967
241.91 K, 15386 kPa, Liquid	0.1016
241.91 K, 20710 kPa, Liquid	0.1039
241.94 K, 5328 kPa, Liquid	0.0974
242 K, 586 kPa, Liquid	0.09528
242.02 K, 10375 kPa, Liquid	0.09936
242.03 K, 15367 kPa, Liquid	0.1014
242.03 K, 20714 kPa, Liquid	0.1037
242.06 K, 5339 kPa, Liquid	0.097
242.11 K, 624 kPa, Liquid	0.09501
242.35 K, 15378 kPa, Liquid	0.1015
242.36 K, 10375 kPa, Liquid	0.09945
242.36 K, 20709 kPa, Liquid	0.1035
242.41 K, 5308 kPa, Liquid	0.09704
242.47 K, 619 kPa, Liquid	0.095
242.5 K, 10391 kPa, Liquid	0.09913
242.5 K, 15372 kPa, Liquid	0.1012
242.5 K, 20712 kPa, Liquid	0.1034
242.56 K, 5308 kPa, Liquid	0.09697
242.62 K, 642 kPa, Liquid	0.09474
242.85 K, 10385 kPa, Liquid	0.09922
242.85 K, 20701 kPa, Liquid	0.1032
242.86 K, 15376 kPa, Liquid	0.1011
242.92 K, 5304 kPa, Liquid	0.09701
243 K, 622 kPa, Liquid	0.09406
243.02 K, 15383 kPa, Liquid	0.1009
243.02 K, 20695 kPa, Liquid	0.1029
243.04 K, 10395 kPa, Liquid	0.09886
243.1 K, 5316 kPa, Liquid	0.09673
243.17 K, 615 kPa, Liquid	0.09437
243.39 K, 20699 kPa, Liquid	0.1032
243.4 K, 15385 kPa, Liquid	0.1011
243.42 K, 10393 kPa, Liquid	0.09892
243.49 K, 5327 kPa, Liquid	0.09667
243.57 K, 643 kPa, Liquid	0.09442
243.59 K, 20693 kPa, Liquid	0.1027
243.6 K, 15397 kPa, Liquid	0.1006
243.63 K, 10402 kPa, Liquid	0.09852
243.71 K, 5317 kPa, Liquid	0.09606
243.79 K, 649 kPa, Liquid	0.09402
251.51 K, 42 kPa, Gas	0.01026
251.52 K, 63 kPa, Gas	0.01037
251.54 K, 86 kPa, Gas	0.01039
251.74 K, 41 kPa, Gas	0.01015
251.76 K, 63 kPa, Gas	0.01019
251.77 K, 86 kPa, Gas	0.01024
251.78 K, 87 kPa, Gas	0.01029
251.97 K, 87 kPa, Gas	0.01006
252 K, 41 kPa, Gas	0.01005
252 K, 62 kPa, Gas	0.01009
252 K, 88 kPa, Gas	0.01003
252.01 K, 86 kPa, Gas	0.01018
252.02 K, 63 kPa, Gas	0.01
252.03 K, 87 kPa, Gas	0.01018
252.31 K, 87 kPa, Gas	0.01004
252.33 K, 88 kPa, Gas	0.01011
252.36 K, 63 kPa, Gas	0.01014
252.65 K, 86 kPa, Gas	0.01016
252.67 K, 87 kPa, Gas	0.01008
252.73 K, 63 kPa, Gas	0.01019
253.03 K, 86 kPa, Gas	0.01015
253.07 K, 87 kPa, Gas	0.01011
253.13 K, 63 kPa, Gas	0.01017
253.46 K, 86 kPa, Gas	0.01017
253.48 K, 87 kPa, Gas	0.01016
253.56 K, 62 kPa, Gas	0.01022
261.25 K, 97 kPa, Gas	0.0104
261.43 K, 21238 kPa, Liquid	0.09804
261.44 K, 15456 kPa, Liquid	0.09523
261.45 K, 97 kPa, Gas	0.01036
261.47 K, 10413 kPa, Liquid	0.09305
261.48 K, 489 kPa, Liquid	0.08806
261.5 K, 80 kPa, Gas	0.01109
261.5 K, 5306 kPa, Liquid	0.09055
261.51 K, 21243 kPa, Liquid	0.09768
261.52 K, 15449 kPa, Liquid	0.09503
261.55 K, 97 kPa, Gas	0.01112
261.55 K, 10410 kPa, Liquid	0.09274
261.56 K, 107 kPa, Gas	0.0112
261.56 K, 489 kPa, Liquid	0.0878
261.57 K, 122 kPa, Gas	0.01124
261.58 K, 5302 kPa, Liquid	0.09026
261.64 K, 98 kPa, Gas	0.01034
261.73 K, 80 kPa, Gas	0.01096
261.77 K, 97 kPa, Gas	0.01098
261.78 K, 105 kPa, Gas	0.01104
261.79 K, 120 kPa, Gas	0.01105
261.83 K, 21233 kPa, Liquid	0.09783
261.85 K, 15453 kPa, Liquid	0.09507
261.86 K, 98 kPa, Gas	0.01037
261.88 K, 10404 kPa, Liquid	0.09272
261.91 K, 489 kPa, Liquid	0.08776
261.93 K, 5298 kPa, Liquid	0.09023
261.93 K, 21227 kPa, Liquid	0.09748
261.96 K, 80 kPa, Gas	0.01086
261.96 K, 128 kPa, Gas	0.01078
261.96 K, 15453 kPa, Liquid	0.09468
261.97 K, 82 kPa, Gas	0.01083
261.97 K, 112 kPa, Gas	0.01074
261.98 K, 99 kPa, Gas	0.01077
262 K, 98 kPa, Gas	0.01084
262 K, 10412 kPa, Liquid	0.0925
262.01 K, 97 kPa, Gas	0.0109
262.02 K, 103 kPa, Gas	0.01092
262.03 K, 118 kPa, Gas	0.01094
262.03 K, 488 kPa, Liquid	0.08756
262.04 K, 5301 kPa, Liquid	0.08998
262.09 K, 98 kPa, Gas	0.01037
262.29 K, 109 kPa, Gas	0.01076
262.29 K, 21229 kPa, Liquid	0.09748
262.3 K, 81 kPa, Gas	0.01082
262.3 K, 98 kPa, Gas	0.01082
